Consider three compounds from ChEMBL document CHEMBL1777765, “Synthesis of 5-thiodidehydropyranylcytosine derivatives as potential anti-HIV agents” (2011).

Active and inactive are the calls of the source. The calls are words filed in the database; no cut-off is given here.

As usually defined, the inhibition is the share of the control response that was lost under treatment.

The test system of test [1] is Human immunodeficiency virus 1. Kind of test: Antiviral activity against HIV1 infected in human PBMC assessed as inhibition of viral replication at 10 nM by p24 HIV antigen capture assay relative to control. In kind it is functional.
The test system of test [2] is Human immunodeficiency virus 1. Kind of test: Antiviral activity against HIV1 infected in human PBMC assessed as inhibition of viral replication at 100 nM by p24 HIV antigen capture assay relative to control. In kind it is functional.
Test [3] concerns Human immunodeficiency virus 1. Kind of test: Antiviral activity against HIV1 infected in human PBMC assessed as inhibition of viral replication at 1 to 1000 nM by p24 HIV antigen capture assay. In kind it is functional, organism-based.

Turning to `Nc1ccn([C@@H]2C=C[C@@H](CO)[C@H](CO)S2)c(=O)n1` (racemic), in test [1], the inhibition at 0.01 µM amounted to 65%. Besides, the inhibition at 0.1 µM in test [2] amounted to 75%. Turning to `Nc1ccn([C@H]2C=C[C@@H](CO)[C@H](CO)S2)c(=O)n1`, in test [3], the inhibition entry is “Active”. For `Nc1ccn([C@@H]2CS[C@H](CO)O2)c(=O)n1` [LAMIVUDINE], in test [1], the inhibition at 0.01 µM stood at 37%.
